Assay: Solid-form stability under stressed conditions (temperature/relative humidity)
Assay type: physicochemical
Conditions: for at least four weeks
Description: Form Z of acetic acid solvated hydrate of ponatinib hydrochloride is stable under stressed conditions of about 40° C./75% RH and about 25° C./97% RH for at least four weeks.

Cc1ccc(C(=O)Nc2ccc(CN3CCN(C)CC3)c(C(F)(F)F)c2)cc1C#Cc1cnc2cccnn12 [3-(imidazo[1,2-b]pyridazin-3-ylethynyl)-4-methyl-N-{4-[(4-methylpiperazin-1-yl)methyl]-3-(trifluoromethyl)phenyl}benzamide]
stability under stressed conditions (about 25° C./97% RH): stable
stability under stressed conditions (about 40° C./75% RH): stable

Reference: US12030886B2, “Form of ponatinib” (MACFARLAN SMITH LIMITED, priority 2018, dated 2024)
